In PubChem BioAssay (NCI):
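48-hour exposure; five concentrations; linearly interpolated endpoints. TGI: concentration producing complete growth inhibition.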

Assays:
Assay in all cases: inhibition of tumour cell growth, NCI panel, 48 h
A549 NSCLC = tested on: A549 NSCLC
EKVX NSCLC = tested on: EKVX NSCLC
HOP-62 NSCLC = tested on: HOP-62 NSCLC
KM12 colon = tested on: KM12 colon
MDA-MB-435 = tested on: MDA-MB-435
NCI/ADR-RES ovarian = tested on: NCI/ADR-RES ovarian
OVCAR-4 ovarian = tested on: OVCAR-4 ovarian
OVCAR-8 ovarian = tested on: OVCAR-8 ovarian
SF-295 CNS = tested on: SF-295 CNS
UO-31 renal = tested on: UO-31 renal

Measured: TGI

C=C1C(=O)O[C@H]2C[C@@H]1C(=O)CC(C)CCCC(C)=CCC[C@@]2(C)O (stereo not given in full)
> 25 µM: all assays above
